What all share (assay type): cell-based
For assay [1], the system named is rat peritoneal mast cells. Put plainly: MAPK activation: phosphorylation of ERK1/2 in rat peritoneal mast cells (RPMC). As to conditions: PTX 0.1 μg/mL, 4 hours before assay. The method, then:
Pertussis toxin (hereinafter PTX) was added to the cells in a final concentration of 0.1 μg/mL 4 hours before assay. RPMC was washed in ice-chilled assay buffer (Tyrode Buffer, 0.01% fatty acid free-BSA (SIGMA), 1 mM CaCl2, 1 mM MgCl2), and suspended in 2×10^6 cells/ml. The suspension was dispensed in a 1.5 mL tube followed by preincubation for 15 minutes at 37° C. The lysoPS solution was added thereto in an equimolar amount. After incubation at 37° C., the reaction was terminated by quenching. The cells were precipitated by centrifugation and the assay buffer was aspirated. After washing in PBS, 1×SDS sample buffer/DTT was added to the cells to lyse the cells. After ultrasonication for 15 seconds, heating at 95° C. for 5 minutes was followed by quenching.
(§1) Detection by SDS-PAGE and western blotting were performed as follows. After separation using 10% Bis-Tris gel (Invitrogen), the gel was transferred to Immuno-Blot PVDF Membrane (BIO-RAD). The membrane was blocked with Block Ace (Dai-Nippon Pharmaceutical) and incubated at 4° C. overnight with a primary antibody (Phospho-p42/p44 MAP Kinase (Thr202/Thr204) Antibody (CST) or p42/p44 MAP Kinase Antibody (CST)) and further incubated at room temperature for an hour with a secondary antibody (Anti-rabbit IgG (CST)). The membrane after the antibody reaction was visualized by chemiluminescence using ECL PLUS (Amersham Biosciences). […]

For assay [2], the target named is T1, GPR34 (Homo sapiens, UniProt Q9UPC5).
T1 construct: expressed in transfected cells
In words: MAPK activation: phosphorylation of ERK1/2 in human GPR34-expressed CHO cells (western blotting). As to conditions: PTX 0.1 μg/mL, 20 hours before the assay. As for the experimental part:
The cells were prepared as described below. Human GPR34-expressed CHO cells were scraped off with 0.05% trypsin-EDTA (GIBCO) and suspended in a medium (MEM-α (GIBCO), supplemented with 10% FBS (GIBCO) and penicillin/streptomycin (BIOWHITTAKER)). After centrifugation, the cells precipitated were suspended in the medium in 2×10^5 cells/ml and a 1 mL aliquot was plated on a 35 mm cell culture dish. After incubation overnight in a CO2 incubator, the medium was aspirated and washed in PBS. Then 1 mL of serum-free medium (MEM-α (GIBCO), supplemented with penicillin/streptomycin (BIOWHITTAKER)) and incubation was performed in a CO2 incubator. Pertussis toxin (hereinafter PTX) was added in a final concentration of 0.1 μg/mL 20 hours before the assay.
The cells were activated as follows. The medium was aspirated and washed in PBS. Thereafter, 500 μL of assay buffer (HBSS (GIBCO), 10 mM HEPES (Dojin Chemical Laboratory)) was added to perform preincubation for 15 minutes at 37° C. The lysoPS solution and […] of PECGF ([…] cell growth factor) solution as a positive control were added. After the mixture was incubated at 37° C., the reaction was terminated by quenching. The assay buffer was aspirated and washed in PBS. Then, 1×SDS sample buffer/DTT was added to the cells to recover the cells. After ultrasonication for 15 seconds, heating at 95° C. for 5 minutes was followed by quenching.
as §1, with “Membrane (Bio-Rad).” for “Membrane (BIO-RAD).”, “at room temperature for an hour” for “at 4° C. overnight”, “hour using” for “hour with”

Assay [3] has as its system mouse bone marrow-derived mast cells. In words: MAPK activation: phosphorylation of ERK1/2 in mouse bone marrow-derived mast cells (BMMC). As to conditions: PTX 0.1 μg/mL, 4 hours before assay. The method, then: BMMC was established by collecting bone marrow fluid from the femur of male BALB/c mouse (Japan SLC), rinsing in RPMI1640 (Nikken Bio Medical Laboratory) and then incubating in a medium (RPMI1640, 50% WEHI-3 culture supernatant, 10% FBS (GIBCO), penicillin/streptomycin (BIOWHITTAKER), Non-Essential amino acids (GIBCO)) for 4 weeks. The cells were incubated in a CO2 incubator immediately before assay. Pertussis toxin (hereinafter PTX) was added to the cells in a final concentration of 0.1 μg/mL 4 hours before assay. BMMC was washed in ice-chilled assay buffer (Tyrode Buffer, 0.01% fatty acid free-BSA (SIGMA), 1 mM CaCl2, 1 mM MgCl2), and suspended in 2×10^6 cells/ml. The suspension was dispensed in a 1.5 mL tube followed by preincubation for 15 minutes at 37° C. The lysoPS solution and A23187 solution (Wako Pure Chemicals) as a positive control were added in equimolar amounts. After incubation at 37° C., the reaction was terminated by quenching. The cells were precipitated by centrifugation and the assay buffer was aspirated. After washing in PBS, 1×SDS sample buffer/DTT was added to the cells to lyse the cells. After ultrasonication for 15 seconds, the sample was heated at 95° C. for 5 minutes followed by quenching.
Detection by SDS-PAGE and western blotting were performed as follows. After separation using 10% Bis-Tris gel (Invitrogen), the gel was transferred to Immuno-Blot PVDF Membrane (BIO-RAD). The membrane was blocked with Block Ace (Dai-Nippon Pharmaceutical) and incubated at 4° C. overnight with a primary antibody (Phospho-p42/p44 MAP Kinase (Thr202/Thr204) Antibody (CST) or p42/p44 MAP Kinase Antibody (CST)) and further incubated at room temperature for an hour using a secondary antibody (Anti-rabbit IgG (CST)). The membrane after the antibody reaction was visualized by chemiluminescence using ECL PLUS (Amersham Biosciences). Detection and image analysis were performed using LAS1000 (FUJI FILM).

The test system of assay [4] is other receptor expression cells. Put plainly: cAMP production inhibitory activity on other receptor expression cells.
Assay [5] concerns the target T1, GPR34. Put plainly: Intracellular cAMP production inhibitory activity on GPR34-expressed CHO cells (forskolin stimulated). As to conditions: phosphatidylserine in a higher concentration. As for the experimental part: The GPR34-expressed CHO cells prepared in (1-2) described above and selected in (1-3) described above were plated on a 24-well plate in 6×10^4 cells/well followed by incubation for 48 hours. The cells were washed with αMEM medium (pH 7.5) containing 0.2 mM 3-isobutylmethylxanthine, 0.05% BSA and 20 mM HEPES (hereinafter αMEM medium (pH 7.5) containing 0.2 mM 3-isobutylmethylxanthine, 0.05% BSA and 20 mM HEPES is referred to as the reaction buffer). Thereafter, 0.5 mL of the reaction buffer was added and the mixture was kept warm for 30 minutes in an incubator. The reaction buffer was removed and 0.25 mL of fresh reaction buffer was replenished to the cells. Then, 0.25 mL of the reaction buffer containing a sample and 2 μM forskolin was added to the cells, followed by reacting at 37° C. for 30 minutes. The reaction solution was removed and 0.5 mL of the cell lysis solution attached to cAMP EIA kit (Applied Biosystems) to extract cAMP in the cells. The cAMP level in the extract was quantified using the same kit. Based on this measurement data, the cAMP production inhibitory activity was calculated based on the equation shown below and expressed in terms of percentage to the control group. […]
In general terms: Changes in cAMP serve as a functional read-out for many G protein-coupled receptors.

T1 sequence (Q9UPC5 whole entry): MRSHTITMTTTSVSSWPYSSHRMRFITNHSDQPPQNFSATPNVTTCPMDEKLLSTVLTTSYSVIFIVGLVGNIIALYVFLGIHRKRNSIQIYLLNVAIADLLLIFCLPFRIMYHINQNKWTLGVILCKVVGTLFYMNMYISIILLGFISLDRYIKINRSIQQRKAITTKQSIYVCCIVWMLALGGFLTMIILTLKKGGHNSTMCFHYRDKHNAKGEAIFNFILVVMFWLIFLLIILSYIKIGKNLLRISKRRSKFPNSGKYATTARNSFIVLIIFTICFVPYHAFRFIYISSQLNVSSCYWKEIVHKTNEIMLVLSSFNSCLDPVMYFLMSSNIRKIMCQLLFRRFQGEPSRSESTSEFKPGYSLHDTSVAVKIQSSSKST

As to Pertussis toxin [PTX], the “effect of PTX pretreatment on phosphorylation of ERK1/2 by lysoPS” value (in assay [1]; on GPR34 [2]; in assay [3]) was “attenuated to the level below the detection limit” throughout.
phosphatidylserine: in assay [4], the “cAMP production inhibitory action on other receptor expression cells” value was “not noted”. The “cAMP production inhibitory activity” value on GPR34 [5] is listed as “marked activities”.

The values above are taken from US7951548B2, “IL-13 production inhibitor” (Takeda Pharmaceutical Company Limited, priority 2005, dated 2011).
